Measured values reported in patent publication US6518315B1, “Medicinal uses of phenylaikanols and derivatives” (The University of Sydney, priority 1997, dated 2003).
Each block holds one molecule with its values, some of them ahead of it.

Key:
rat mesenteric artery = assay: Vasodilation on rat mesenteric artery; details: for potency in relaxing rat mesenteric artery / vascular bed, in words: preliminary investigation
Description: The proposed mechanism of neuropeptide release by 1-(4-hydroxy-3-methoxyphenyl)dodecan-3-ol, similar to that of capsaicin, was supported by studies in blood vessels. […] This contrasts with capsaicin which has similar activity in Guinea pig atria (force and rate) and relaxing rat mesenteric artery.

guinea pig atria = assay: Organ bath assay, isolated guinea pig atria (rate and force of contraction)
Protocol: Male guinea pigs, 3-4 weeks old, were killed by rapid cervical dislocation without induced anaesthesia. Then, the guinea pigs were dissected to isolate the atria which were immediately mounted vertically in an organ bath containing Krebs-Henseleit solution oxygenated with carbogen.
One gram tension was applied to the atria and the base line continuously adjusted until it was stable for 20 mins. The rate and force of contraction were recorded using Mac Lab equipment.
Test substances in DMSO were assayed to a maximum concentration of 50 μM at a final concentration of 2.5% of DMSO.

[1] = tested on: capsaicin-sensitive DRG neuronal cells; assay: [Ca^2+]i transients in DRG neuronal cells in culture; format: cell-based, rat; details: for Peak [Ca^2+]i (Average ± SD): 10 μM applied for 1 min, 2 mM Ca^2+
Description: Effect of Gingerol Analogues Towards Rat Dorsal Root Ganglia
Capsaicin, the pungent component in peppers of the Capsicum genus, family Solanaceae, has the ability to excite a subset of sensory neurons, which include polymodal nociceptors and warm thermoceptors (Fitzgerald, 1983) by opening non-selective cation channels that are permeable to Na^+, K^+, and Ca^2+ (Bevan and Szolcsanyi, 1990). It has been shown that capsaicin evoked a concentration-dependent rise in [Ca^2+]i in cultured dorsal root ganglion neurons. The duration of the elevation of [Ca^2+]i depended on the concentration of capsaicin (Choleswinski, et al., 1993). In this investigation peak [Ca^2+]i transient measurements are used as a model for testing gingerol analogues.
DRG from neonatal (3-5 days old) rat or adult Sprague-Dawley rats were incubated in Hanks CMF saline with 0.05% collagenase and 0.25% trypsin for 25 min at 37° C. Individual cells were obtained by trituration with fire polished Pasteur pipettes of diminishing diameters. Neurones were isolated from the cell suspension in 30% Percoll and then plated on collagen coated coverslips or in 24-well plates, then cultured in neurobasal medium with B27 supplement, 50 ng/ml 2.5 S nerve growth factor, 2 mM 1-glutamine and 100 U/ml penicillin/streptomycin. Cultures were maintained at 37° C. with 5% CO2. 30% Percoll increases the percentage of capsaicin-sensitive DRG neurones up to 70%. For peak [Ca^2+]i transients measurements, cells on coverslips were incubated with 5 μM Fura-2 AM for 30 min at 37° C. The coverslips were then mounted on a chamber attached to a fast sample application perfusion system which allows changing solutions in the second range. Recordings were made on the stage of a Nikon Diaphot inverted microscope fitted with a Nikon 40×Fluo (NA 0.85) DL Ph3 or 40×Fluo (NA 1.3) oil objective. [Ca^2+]i was calculated from dual excitation wavelength (340/380 nm) fluorescence measurements following an intracellular calibration procedure by the Grynkiewicz equation, using MCID M2/M4 v.3.0 (Imaging Res. Inc.) software. Cells were continuously perfused with a solution consisting of 140 mM NaCl, 2 mM CaCl2, 5 mM KCl, 20 mM HEPES, 10 mM glucose, pH 7.4. To study KCl evoked depolarisation, 50 mM NaCl was replaced by equimolar KCl. Cytoplasmic localisation of Fura-2 was tested with the Mn^2+ quenching technique (Dedov and Roufogalis, 1998). All experiments were performed at room temperature (20-23° C.).
Typical changes in [Ca^2+]i upon depolarisation were evoked by 50 mM KCl and by application of 1 μM capsaicin; both were applied for 30 sec. Capsaicin-evoked peak [Ca^2+]i transients are characterised by a fast rise and long-steady state [Ca^2+]i clearance from the cytoplasm. In capsaicin-sensitive cells the half-time of cytoplasmic Ca^2+ clearance was proportional to the amplitudes of peak [Ca^2+]i transients.
To examine the effect of gingerol derivatives, one or several compounds in succession at a concentration of 10 μM were applied for 1 min to the DRG neuronal cells followed by washing out for 4 min with physiological solution. To the capsaicin-sensitive cells, 10 μM capsaicin and 50 mM KCl were applied, respectively, to confirm the viability of the cells. In addition, morphological appearances of the cells were also examined at the end of experiment. […]

[2] = target: T1, Ca^2+-ATPase of dog cardiac SR (Canis lupus familiaris, UniProt O46674); assay: Sarcoplasmic reticulum Ca^2+-ATPase assay; format: biochemical; details: 0 μM = 100
T1 construct: SR membrane (75 μg/ml): 24 μl; from tissue; host or cells: dog cardiac sarcoplasmic reticulum membranes
Protocol: A. Sarcoplasmic Reticulum Ca^2+-ATPase Assay
SR membrane (75 μg/ml): 24 μl
Test substance: appropriate volumes to give a dose-effect concentration
Incubation buffer: up to 240 μl
A portion at each concentration (54 μl) was aliquoted into 4 designated wells of the microplate (two of four wells were controls). Each well was mixed with ATP solution (20 mM, 6 μl), except the controls, using an 8 channel pipette. The controls were assayed in the absence of ATP or calcium.
The plate was incubated with the lid on, for 30 min at 37° C., colour reagent (160 μl) was then added and mixed with citrate solution (34%, 30 μl). The plate was developed at room temperature for 30 min then absorbance at 655 nm was read from the microplate reader. The Ca^2+-ATPase activity was quantitated, from a Pi standard curve, as concentration of liberated inorganic phosphate.
Stock solutions (10 mM) of test substance were prepared in DMSO, then series dilutions were made either in DMSO or in 1M HEPES to produce the dose-response concentrations. The maximum concentration of DMSO in the final assay solution was 2.5%.
Each concentration of test substance was assayed in duplicate in the presence and absence of ATP or calcium. Phosphate standards are run on each plate as follows:
Effect of gingerols and their derivatives on the Ca^2+-ATPase of dog cardiac SR.

[3] = tested on: brine shrimp (Artemia salina Leach); assay: Brine shrimp assay; format: in vivo
Description: Toxicity—Brine Shrimp Assay
The brine shrimp assay procedure determines LC50 values of active compounds. Activities of a broad range of known active compounds are manifested as toxicity to brine shrimp (Artemia salina Leach). There are many applications of the assay including analysis of toxic substances, anaesthetics, morphine-like substances and cocarcinogenicity of phorbol esters.
DMSO (dimethyl sulfoxide) was the solvent of choice because of its good solubilising properties and also because the substances used in the ATPase inhibition assays were already prepared with DMSO.
The method for testing solvent toxicity used was basically that reported by J L McLaughlin in Methods of Plant Biochemistry (1991), vol. 6 (K Hostettman, ed.), Academic Press, London, 1-32. DMSO solutions of the substances to be tested were added directly to the vials containing the brine shrimp. As the concentration of DMSO is that we wished to use was higher than the recommended 1% v/v testing of the toxicity of the DMSO was therefore necessary. The concentrations of DMSO tested on the shrimp, along with the results from the assay which was done in duplicate are listed below.
Brine shrimp toxicity was assayed, except for some minor modifications, according to the method of McLaughlin et al as reported in Brine Shrimp: A convenient bioassay for active plant constituents, B N Meyer, N R Ferrigni, J E Putnam, L B Jacobsen, D E Nichols and J L McLaughlin in Planta Medica (1982), 45, 31-34 and Crown gall tumours on potato discs and brine shrimp lethality: Two simple bioassays for higher plant screening and fractionation. J L McLaughlin. Methods of Plant Biochemistry (1991), vol. 6 (K Hostettman, ed.), Academic Press, London, 1-32. Ten shrimp were transferred to each of the vials and the volume adjusted to 4.9 mL. Each dose was performed in triplicate, including the control. In quick succession, the appropriate volume of additional DMSO for each dose, required to achieve a final concentration of 2%, was added before the appropriate volume of test solution. The vials were gently mixed and the time noted. After 24 hours, the number of survivors were counted and % mortality was determined. The test compounds were assayed at concentrations of 100 μM, 25 μM, 5 μM, 1 μM and 0.2 μM (and where appropriate concentrations of 0.04 μM and 0.008 μM).
The brine shrimp were able to survive without food in the vials over the 24 hour period and were therefore not fed.
The dose-response curves were constructed using the Sigmaplot computer program and the LC50 value was calculated from the intersection point of the curve and the 50% mortality line. The LC50 values were expressed in both μM and μg/mL.
For substances with low toxicity, the greater sign “>” indicated the highest concentration at which the assay was carried out as precipitation of the substances occurred above that concentration.

cardiac Purkinje fibres = assay: Cardiac electrophysiology on Purkinje fibres; set-up: species or system dog; details: up to 10 μM
Protocol: Cardiac Electrophysiological Activities of Gingerol and its Analogue
The basic cardiac electrophysiological properties were assessed using cardiac Purkinje fibres obtained from adult mongrel dogs.
Electrophysiology was carried out on dog heart purkinje fibre to test for potential arrhythmia. […] At high concentration (50 μM), however, [8]-gingerol reduced approximate 80% and 50% of action potential duration at 50% and 90% repolarisations respectively. Whereas the analogue reduced 75% and 30% respectively.

T1 sequence (O46674 whole entry): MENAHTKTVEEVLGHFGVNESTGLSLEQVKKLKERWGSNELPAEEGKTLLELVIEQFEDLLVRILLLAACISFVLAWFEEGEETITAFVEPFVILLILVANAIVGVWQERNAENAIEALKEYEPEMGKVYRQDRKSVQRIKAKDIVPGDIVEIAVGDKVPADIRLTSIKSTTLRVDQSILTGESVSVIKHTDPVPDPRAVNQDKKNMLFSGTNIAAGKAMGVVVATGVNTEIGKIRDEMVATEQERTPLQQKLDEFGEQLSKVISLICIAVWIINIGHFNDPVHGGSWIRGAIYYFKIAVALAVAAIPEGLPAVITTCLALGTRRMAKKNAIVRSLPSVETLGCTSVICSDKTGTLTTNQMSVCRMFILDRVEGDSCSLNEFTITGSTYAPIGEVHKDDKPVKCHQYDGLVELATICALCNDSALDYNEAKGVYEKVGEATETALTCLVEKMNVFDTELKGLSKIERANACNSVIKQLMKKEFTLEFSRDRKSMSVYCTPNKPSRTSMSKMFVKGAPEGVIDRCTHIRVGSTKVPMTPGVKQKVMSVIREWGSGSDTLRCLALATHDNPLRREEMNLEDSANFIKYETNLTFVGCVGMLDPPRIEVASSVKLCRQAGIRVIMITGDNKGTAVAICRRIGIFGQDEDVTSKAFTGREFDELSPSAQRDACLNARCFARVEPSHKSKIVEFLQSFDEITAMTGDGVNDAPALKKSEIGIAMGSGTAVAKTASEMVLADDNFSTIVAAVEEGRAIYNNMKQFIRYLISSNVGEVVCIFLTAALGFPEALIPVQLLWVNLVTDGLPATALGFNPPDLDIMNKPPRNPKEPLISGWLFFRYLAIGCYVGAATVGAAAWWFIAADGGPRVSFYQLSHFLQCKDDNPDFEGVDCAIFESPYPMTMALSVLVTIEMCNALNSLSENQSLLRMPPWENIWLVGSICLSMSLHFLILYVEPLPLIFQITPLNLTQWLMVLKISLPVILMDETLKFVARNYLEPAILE

EC50 (rat mesenteric artery; Rattus norvegicus, arteries 200-300 μm, precontracted with endothelin, read-out: EC50, relaxation of small arteries from rat mesentery): 0.5 µM
SMILES: CCCCCCCCCC(O)CCc1ccc(O)c(OC)c1 (single isomer, unassigned) [enantiomer-1, 1-(4-hydroxy-3-methoxyphenyl)dodecan-3-ol]

SMILES: CCCCCCCC(O)CCCCc1ccc(O)c(OC)c1 (centres unmarked) [1-(4-hydroxy-3-methoxyphenyl)dodecan-5-ol]
HEART RATE (chronotropic activity), result in words (guinea pig atria; assayed to a maximum of 50 μM): ↑weakly
Peak [Ca^2+]i (Average ± SD) [1]: 0 nM

SR Ca^2+-ATPase activity ([2]; 5 μM): 113
SR Ca^2+-ATPase activity ([2]; 10 μM): 136
SR Ca^2+-ATPase activity ([2]; 25 μM): 158
SR Ca^2+-ATPase activity ([2]; 50 μM): 126
SR Ca^2+-ATPase activity ([2]; 100 μM): 87
SR Ca^2+-ATPase activity ([2]; 200 μM): 18
SMILES: CCCCCCCC(=O)CCCCc1ccc(O)c(OC)c1 [1-(4-hydroxy-3-methoxyphenyl)dodecan-5-one]

melting point: 78 to 80 °C
SMILES: CCCCCCCCCC(O)C(=O)c1ccc(O)c(OC)c1 (centres unmarked) [2-hydroxy-1-(4-hydroxy-3-methoxyphenyl)undecan-1-one]

SMILES: CCCCCCCC(=O)CC(O)CCc1ccc(O)c(OC)c1 (centres unmarked) [3-hydroxy-1-(4-hydroxy-3-methoxyphenyl)dodecan-5-one]
potency in relaxing rat mesenteric artery / vascular bed, in words (rat mesenteric artery): showed potency

SMILES: CCCCCCCCC(C)(O)CCc1ccc(O)c(OC)c1 (centres unmarked) [3-methyl-1-(4-hydroxy-3-methoxyphenyl)undecan-3-ol]
Peak [Ca^2+]i (Average ± SD) [1]: 0 nM

SMILES: CCCCCCCC(O)CC(=O)CCc1ccc2c(c1)OCO2 (centres unmarked) [5-hydroxy-1-(3,4-methylenedioxyphenyl)dodecan-3-one]
potency in relaxing rat mesenteric artery / vascular bed, in words (rat mesenteric artery): showed potency

SMILES: COc1cc(CNC(=O)CCCC/C=C/C(C)C)ccc1O [Capsaicin, reference compound]
evoked [Ca^2+]i transients in Ca^2+-free medium or with ruthenium red ([1]; Ca^2+-free medium or ruthenium red (1 μM)): abolished or greatly diminished

SMILES: C[S+](C)[O-] [DMSO, dimethyl sulfoxide]
% Deaths ([3]; 1 % v/v): 0%
% Deaths ([3]; 2 % v/v): 0%
% Deaths ([3]; 3 % v/v): 0%
% Deaths ([3]; 4 % v/v): 0%
% Deaths ([3]; 5 % v/v): 9%
% Deaths ([3]; 7 % v/v): 12%
% Deaths ([3]; 9 % v/v): 18%
% Deaths ([3]; 11 % v/v): 57%
% Deaths ([3]; 13 % v/v): 96%
% Deaths ([3]; 15 % v/v): 100%
% Deaths ([3]; 20 % v/v): 100%
% Deaths ([3]; 25 % v/v): 100%

SMILES: CCCCCCCC(O)CC(=O)C=Cc1ccc(O)c(OC)c1 (centres unmarked) [[8]-dehydrogingerol, 5-hydroxy-1-(4-hydroxy-3-methoxyphenyl)dodecan-1-ene-3-one, reference compound]
time for tension to reach maximum after addition of a dose (guinea pig atria): a few mins

SMILES: CCCCCCCC(O)CC(=O)CCc1ccc(O)c(OC)c1 (centres unmarked) [[8]-gingerol, 5-hydroxy-1-(4-hydroxy-3-methoxyphenyl)dodecan-3-one, reference compound]
time to increased cardiac contractility after addition of the drug (guinea pig atria): 15 s
effect on rate of depolarization, amplitude and duration of action potential (50% and 90%) (cardiac Purkinje fibres): insignificant effect

SMILES: CCCCCCCCCC(=O)CCc1ccc(O)c(OC)c1 [[8]-paradol, 1-(4-hydroxy-3-methoxyphenyl)dodecan-3-one, reference compound]
potency in relaxing rat mesenteric artery / vascular bed, in words (rat mesenteric artery): showed potency
Peak [Ca^2+]i (Average ± SD) [1]: 200 nM

SMILES: C[C@H]1O[C@@H](O[C@H]2[C@@H](O)C[C@H](O[C@H]3[C@@H](O)C[C@H](O[C@H]4CC[C@@]5(C)[C@H](CC[C@@H]6[C@@H]5C[C@@H](O)[C@]5(C)[C@@H](C7=CC(=O)OC7)CC[C@]65O)C4)O[C@@H]3C)O[C@@H]2C)C[C@H](O)[C@@H]1O [digoxin, reference compound]
time for tension to reach maximum after addition of a dose (guinea pig atria): a few mins
